Among the data in US7022708B2, “4-piperazinyl benzenesulfonyl indoles and uses thereof” (Roche Palo Alto LLC, priority 2002, dated 2006) are melting point values, retold here.

In turn, `O=S(=O)(c1ccc(N2CCNCC2)cc1)n1ccc2cc(F)ccc21` [Compound 1, 5-Fluoro-1-(4-piperazin-1-yl-benzenesulfonyl)-1H-indole] came in with a melting point of 77 to 78 °C.
Turning to `O=S(=O)(c1ccc(N2CCNCC2)cc1)c1cc2ccccc2[nH]1` [Compound 39, 2-(4-Piperazin-1-yl-benzenesulfonyl)-1H-indole], the melting point is 246 to 248.5 °C.
